# Legend:
# Mycobacterium = conditions: antimycobacterial activity; ref Boonphong et al., 2007; cited from earlier work
# HepG2 cells = conditions: tert-butyl hyperoxide induced-toxicity on HepG2 cells; ref Kim et al. (2011); cited from earlier work
# [1] = tested on: pathogenic and non-pathogenic Mycobacterium strains; type: cell-based
# M. bovis (ATCC 27290) = assay: microbe, parasite or virus in culture; type: cell-based, Mycobacterium bovis; conditions: for MIC: Mycobacterium tuberculosis variant bovis, ATCC27290, read-out: MIC M. bovis
# [2] = tested on: M. tuberculosis H37RV (ATCC 27294); assay: microbe, parasite or virus in culture; type: cell-based, Mycobacterium tuberculosis; conditions: for MIC: Mycobacterium tuberculosis, ATCC27294|H37RV, read-out: MIC M. tb H37Rv
# [3] = tested on: Mycobacterium smegmatis (ATCC 1441); assay: microbe, parasite or virus in culture; type: cell-based; conditions: for MIC: Mycolicibacterium smegmatis, ATCC1441, 24 h, read-out: MIC M. smegmatis
# M. aurum (NCTC 10437) = assay: microbe, parasite or virus in culture; type: cell-based, Mycobacterium aurum; conditions: Mycolicibacterium aurum, NCTC10437, read-out: MIC M. aurum
# M. fortuitum (ATCC 6841) = assay: microbe, parasite or virus in culture; type: cell-based, Mycobacterium fortuitum; conditions: Mycolicibacterium fortuitum, ATCC6841, 24 h, read-out: MIC M. fortuitum
# in vitro = conditions: human, Cell viability of HepG2 cells treated with the toxicant alone
# HepG2 liver cells = conditions: human
# Vero monkey kidney cells = type: cell-based
# Caco-2 cells = type: cell-based, human
# C3A cells = type: cell-based
molecule,measurement,setting,value
chaplashin,MIC,Mycobacterium,3 µg/mL
O=c1c(O[C@@H]2O[C@@H](CO)[C@H](O)[C@H]2O)c(-c2ccc(O)c(O)c2)oc2cc(O)cc(O)c12 [avicularin],Hepatoprotective activity in words,HepG2 cells,significant hepatoprotective activity
O=c1c(O[C@@H]2O[C@H](CO)[C@@H](O)[C@H](O)[C@H]2O)c(-c2ccc(O)c(O)c2)oc2cc(O)cc(O)c12 [hirsutrin],Hepatoprotective activity in words,HepG2 cells,significant hepatoprotective activity
4′-methoxykaempferol,Antimycobacterial activity in words,[1],weak
same,MIC M. bovis,M. bovis (ATCC 27290),125 µg/mL
same,MIC M. tb H37Rv,[2],125 µg/mL
same,MIC M. smegmatis,[3],250 µg/mL
"[H]/N=C(/N)N[C@H]1[C@H](O)[C@@H](O)[C@H](O[C@@H]2O[C@@H](C)[C@](O)(C=O)[C@H]2O[C@@H]2O[C@@H](CO)[C@H](O)[C@@H](O)[C@@H]2NC)[C@@H](N/C(N)=N\[H])[C@@H]1O [Strep (+ve con), streptomycin, reference compound]",MIC,M. aurum (NCTC 10437),4 µg/mL
same,MIC,M. bovis (ATCC 27290),4 µg/mL
same,MIC,M. fortuitum (ATCC 6841),> 1000 µg/mL
same,MIC,[2],0.24 µg/mL
same,MIC,[3],3.9 µg/mL
"CO[C@H]1/C=C/O[C@@]2(C)Oc3c(C)c(O)c4c(O)c(c(/C=N/N5CCN(C)CC5)c(O)c4c3C2=O)NC(=O)/C(C)=C\C=C\[C@H](C)[C@H](O)[C@@H](C)[C@@H](O)[C@@H](C)[C@H](OC(C)=O)[C@@H]1C [Rif (+ve con), rifampicin, reference compound]",viability,in vitro,65%
same,MIC,M. aurum (NCTC 10437),4 µg/mL
same,Cell viability of HepG2 cells treated with the toxicant alone,HepG2 liver cells,65.27±0.184%
same,MIC,M. bovis (ATCC 27290),4 µg/mL
same,MIC,M. fortuitum (ATCC 6841),63 µg/mL
same,MIC,[2],0.24 µg/mL
same,Selectivity index LC50/MIC M. aurum,Vero monkey kidney cells,23.500
same,Selectivity index LC50/MIC M. bovis,Vero monkey kidney cells,23.500
same,Selectivity index LC50/MIC M. fortuitum,Vero monkey kidney cells,1.492
same,Selectivity index LC50/MIC M. smegmatis,Vero monkey kidney cells,24.103
same,Selectivity index LC50/MIC M. tb H37RV,Vero monkey kidney cells,>100
same,MIC,[3],3.9 µg/mL
"COc1ccc(-c2oc3cc(OC)cc(O)c3c(=O)c2OC)cc1 [5‑hydroxy-3,7,4′-trimethoxyflavone]",Antimycobacterial activity in words,[1],good activity
same,Percentage hepatoprotective activity (cell viability),HepG2 liver cells,89.277±0.023%
same,MIC,M. bovis (ATCC 27290),63 µg/mL
same,Selectivity index LC50/MIC M. bovis,Caco-2 cells,2.524
same,Selectivity index LC50/MIC M. fortuitum,Caco-2 cells,2.524
same,Selectivity index LC50/MIC M. smegmatis,Caco-2 cells,2.524
same,Selectivity index LC50/MIC M. tb H37RV,Caco-2 cells,2.524
same,MIC,M. fortuitum (ATCC 6841),63 µg/mL
same,MIC,[2],63 µg/mL
same,Selectivity index LC50/MIC M. bovis,C3A cells,3.174
same,Selectivity index LC50/MIC M. fortuitum,C3A cells,3.174
same,Selectivity index LC50/MIC M. smegmatis,C3A cells,3.174
same,Selectivity index LC50/MIC M. tb H37RV,C3A cells,3.174
same,Selectivity index LC50/MIC M. fortuitum,Vero monkey kidney cells,3.127
same,Selectivity index LC50/MIC M. smegmatis,Vero monkey kidney cells,3.127
same,Selectivity index LC50/MIC M. tb H37RV,Vero monkey kidney cells,3.127
same,MIC,[3],63 µg/mL
COc1cc2oc(-c3ccc(O)cc3O)c(CC=C(C)C)c(=O)c2c(O)c1/C=C/C(C)C [artocarpin],MIC,Mycobacterium,3 µg/mL
"COc1ccc(C2CC(=O)c3c(OC)cc(OC)cc3O2)cc1 (stereo not drawn) [5,7,4′-trimethoxy flavanone]",Antimycobacterial activity in words,[1],good activity
same,Percentage hepatoprotective activity (cell viability),HepG2 liver cells,85.674±0.0618%
same,MIC,M. bovis (ATCC 27290),63 µg/mL
same,Selectivity index LC50/MIC M. bovis,Caco-2 cells,3.175
same,Selectivity index LC50/MIC M. fortuitum,Caco-2 cells,3.175
same,Selectivity index LC50/MIC M. smegmatis,Caco-2 cells,3.175
same,Selectivity index LC50/MIC M. tb H37RV,Caco-2 cells,6.452
same,MIC,M. fortuitum (ATCC 6841),63 µg/mL
same,MIC,[2],31 µg/mL
same,Selectivity index LC50/MIC M. bovis,C3A cells,3.174
same,Selectivity index LC50/MIC M. fortuitum,C3A cells,3.174
same,Selectivity index LC50/MIC M. smegmatis,C3A cells,3.174
same,Selectivity index LC50/MIC M. tb H37RV,C3A cells,6.452
same,Selectivity index LC50/MIC M. bovis,Vero monkey kidney cells,3.206
same,Selectivity index LC50/MIC M. fortuitum,Vero monkey kidney cells,3.206
same,Selectivity index LC50/MIC M. smegmatis,Vero monkey kidney cells,3.206
same,MIC,[3],63 µg/mL
O=c1c(O)c(-c2ccc(O)c(O)c2)oc2cc(O)cc(O)c12 [quercetin],Hepatoprotective activity in words,HepG2 cells,significant hepatoprotective activity
